Values joined by “and” are separate entries in the source; they are usually repeats but may differ in a detail not shown here. Equal entries are not always repeated. Inconclusive results and toxic doses are left out. Rule for the calls: active = survival T/C of 150% or more; inactive = T/C below 125% in these data.
System: P388 leukemia ip, CD2F1 mice, survival T/C
Test: NCI In Vivo Anticancer Drug Screen. Data for tumor model P388 Leukemia (intraperitoneal) in CD2F1 (CDF1) mice
Details: endpoint: median survival time, higher = longer survival
In short: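 Mice carrying the transplanted tumor received test compound or vehicle. Survival was recorded in each group, and the value is the treated-group measurement divided by that of the vehicle-treated control group.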

[1] = dose: 50.0 mg/kg/injection, schedule: Q01DX009 (ip), vehicle: saline with Tween-80
[2] = dose: 12.5 mg/kg/injection, schedule: Q01DX009 (ip), vehicle: saline with Tween-80
[3] = dose: 50.0 mg/kg/injection, schedule: Q01DX005 (ip), vehicle: Klucel (hydroxypropylcellulose) (HPC)
[4] = dose: 100.0 mg/kg/injection, schedule: Q01DX005 (ip), vehicle: Klucel (hydroxypropylcellulose) (HPC)
[5] = dose: 200.0 mg/kg/injection, schedule: Q01DX005 (ip), vehicle: Klucel (hydroxypropylcellulose) (HPC)
[6] = dose: 50.0 mg/kg/injection, schedule: Q01DX005 (ip), vehicle: saline with Tween-80
[7] = dose: 100.0 mg/kg/injection, schedule: Q01DX005 (ip), vehicle: saline with Tween-80
[8] = dose: 200.0 mg/kg/injection, schedule: Q01DX005 (ip), vehicle: saline with Tween-80
[9] = dose: 25.0 mg/kg/injection, schedule: Q04DX003 (ip), vehicle: saline with Tween-80
[10] = dose: 60.0 mg/kg/injection, schedule: Q01DX005 (ip), vehicle: saline with Tween-80
[11] = dose: 120.0 mg/kg/injection, schedule: Q01DX005 (ip), vehicle: saline with Tween-80
[12] = dose: 240.0 mg/kg/injection, schedule: Q01DX005 (ip), vehicle: saline with Tween-80
[13] = dose: 60.0 mg/kg/injection, schedule: Q01DX005 (ip), vehicle: Klucel (hydroxypropylcellulose) (HPC)
[14] = dose: 120.0 mg/kg/injection, schedule: Q01DX005 (ip), vehicle: Klucel (hydroxypropylcellulose) (HPC)

Measured: T/C

O=C(O)c1cc(-c2ccc(Cl)cc2)nc2c(-c3ccccc3)cccc12
inactive: [1] 91 % of control | dose: 100.0 mg/kg/injection, schedule: Q01DX009 (ip), vehicle: saline with Tween-80 103 % of control | dose: 200.0 mg/kg/injection, schedule: Q01DX009 (ip), vehicle: saline with Tween-80 104 % of control

N=C(N)c1ccc(SCCCCCSc2ccc(C(=N)N)cc2)cc1
inactive: dose: 3.13 mg/kg/injection, schedule: Q01DX009 (ip), vehicle: saline with Tween-80 117 % of control | dose: 6.25 mg/kg/injection, schedule: Q01DX009 (ip), vehicle: saline with Tween-80 124 % of control | [2] 119 % of control

OC(CNc1ccc(CSc2ccccc2)cc1)c1ccccc1 (stereo not drawn)
inactive: dose: 50.0 mg/kg/injection, schedule: Q01DX009 (ip), vehicle: saline + Tween-80 + alcohol 101 % of control and 104 % of control | dose: 100.0 mg/kg/injection, schedule: Q01DX009 (ip), vehicle: saline + Tween-80 + alcohol 99 % of control | dose: 200.0 mg/kg/injection, schedule: Q01DX009 (ip), vehicle: saline + Tween-80 + alcohol 99 % of control and 102 % of control | dose: 400.0 mg/kg/injection, schedule: Q01DX009 (ip), vehicle: saline + Tween-80 + alcohol 104 % of control and 90 % of control

CC1CCC2(OC1)OC1CC3C4CC=C5CC(OC6OC(CO)C(OC7OC(C)C(OC8OC(C)C(O)C(O)C8O)C(O)C7O)C(O)C6OC6OC(C)C(O)C(O)C6O)CCC5(C)C4CCC3(C)C1C2C (stereo not drawn)
inactive: dose: 0.62 mg/kg/injection, schedule: Q01DX009 (ip), vehicle: saline 106 % of control | dose: 1.25 mg/kg/injection, schedule: Q01DX009 (ip), vehicle: saline 91 % of control | dose: 2.5 mg/kg/injection, schedule: Q01DX009 (ip), vehicle: saline 90 % of control

O=[N+]([O-])/C=C/c1cc(Cl)c(/C=C/[N+](=O)[O-])cc1Cl
inactive: [3] 108 % of control and 121 % of control | [4] 120 % of control and 122 % of control | [5] 106 % of control and 123 % of control | dose: 400.0 mg/kg/injection, schedule: Q01DX005 (ip), vehicle: Klucel (hydroxypropylcellulose) (HPC) 97 % of control

COc1ccc2nccc(CC(O)C(Cl)(Cl)Cl)c2c1 (stereo not drawn)
inactive: [6] 105 % of control | [7] 93 % of control | [8] 101 % of control

CC[N+](C)(CC)CCl
inactive: dose: 7.5 mg/kg/injection, schedule: Q01DX005 (ip), vehicle: saline 104 % of control | dose: 15.0 mg/kg/injection, schedule: Q01DX005 (ip), vehicle: saline 99 % of control

c1c(NC2=NCCO2)cc2c3c1CCCN3CCC2
inactive: dose: 12.5 mg/kg/injection, schedule: Q04DX003 (ip), vehicle: saline with Tween-80 90 % of control | [9] 100 % of control | dose: 50.0 mg/kg/injection, schedule: Q04DX003 (ip), vehicle: saline with Tween-80 109 % of control

CN(C)c1ccc(/C=N/NC(=O)COc2ccccc2)cc1
inactive: dose: 15.0 mg/kg/injection, schedule: Q01DX005 (ip), vehicle: saline with Tween-80 98 % of control | dose: 30.0 mg/kg/injection, schedule: Q01DX005 (ip), vehicle: saline with Tween-80 88 % of control | [10] 88 % of control

C[N+](C)(CCCCOc1c(Br)cc(Br)cc1Br)Cc1ccc([N+](=O)[O-])o1
inactive: dose: 12.5 mg/kg/injection, schedule: Q04DX003 (ip), vehicle: Klucel (hydroxypropylcellulose) (HPC) 100 % of control | dose: 25.0 mg/kg/injection, schedule: Q04DX003 (ip), vehicle: Klucel (hydroxypropylcellulose) (HPC) 101 % of control | dose: 50.0 mg/kg/injection, schedule: Q04DX003 (ip), vehicle: Klucel (hydroxypropylcellulose) (HPC) 100 % of control

Cc1cn(O)cc(C)c1=N
inactive: [2] 100 % of control | dose: 25.0 mg/kg/injection, schedule: Q01DX009 (ip), vehicle: saline with Tween-80 100 % of control | [1] 108 % of control

CN1CCN(CCCN2CC(=O)N3Cc4ccccc4CN3C(=O)C2)CC1
inactive: dose: 50.0 mg/kg/injection, schedule: Q01DX005 (ip), vehicle: saline 102 % of control | dose: 100.0 mg/kg/injection, schedule: Q01DX005 (ip), vehicle: saline 102 % of control | dose: 200.0 mg/kg/injection, schedule: Q01DX005 (ip), vehicle: saline 103 % of control

CC(C)CNC(=O)NCCCCCCNC(=O)NCC(C)C
inactive: [10] 94 % of control | [11] 93 % of control | [12] 93 % of control

COc1cc2c3cc1Oc1c(OC)c(OC)cc4c1[C@@H](Cc1ccc(O)c(c1)Oc1ccc(cc1)C[C@@H]3N(C)CC2)N(C)CC4
inactive: [13] 102 % of control and 106 % of control | [14] 118 % of control and 113 % of control

CCOC(=O)c1ccc(NC(=S)N(CCC#N)C2CCCCC2)cc1
inactive: dose: 50.0 mg/kg/injection, schedule: Q01DX009 (ip), vehicle: Klucel (hydroxypropylcellulose) (HPC) 93 % of control | dose: 100.0 mg/kg/injection, schedule: Q01DX009 (ip), vehicle: Klucel (hydroxypropylcellulose) (HPC) 102 % of control | dose: 200.0 mg/kg/injection, schedule: Q01DX009 (ip), vehicle: Klucel (hydroxypropylcellulose) (HPC) 98 % of control

Brc1cc2c(cc1C=NC1CCCCC1)OCO2
inactive: dose: 100.0 mg/kg/injection, schedule: Q01DX001 (ip), vehicle: Klucel (hydroxypropylcellulose) (HPC) 99 % of control | dose: 200.0 mg/kg/injection, schedule: Q01DX001 (ip), vehicle: Klucel (hydroxypropylcellulose) (HPC) 101 % of control | dose: 400.0 mg/kg/injection, schedule: Q01DX001 (ip), vehicle: Klucel (hydroxypropylcellulose) (HPC) 101 % of control

CCCCCCCCCCC(=O)CCCCC
inactive: dose: 100.0 mg/kg/injection, schedule: Q04DX003 (ip), vehicle: other 104 % of control | dose: 200.0 mg/kg/injection, schedule: Q04DX003 (ip), vehicle: other 109 % of control | dose: 400.0 mg/kg/injection, schedule: Q04DX003 (ip), vehicle: other 113 % of control

Cc1cc2c3c(c1)C(C(F)(F)F)(C(F)(F)F)OI3OC2(C(F)(F)F)C(F)(F)F
inactive: dose: 25.0 mg/kg/injection, schedule: Q01DX005 (ip), vehicle: Klucel (hydroxypropylcellulose) (HPC) 95 % of control | [3] 95 % of control | [4] 96 % of control | [5] 97 % of control

COc1cc(NC(=O)c2ccc(NC(=O)c3ccc(N)cc3)cc2)c(OC)cc1N=Nc1cc(C)c(N=Nc2cc(S(=O)(=O)O)c3cccc(S(=O)(=O)O)c3c2)cc1C
inactive: [6] 100 % of control | [7] 94 % of control

N#CC1(C#N)C(c2ccccc2)C1(C#N)C#N
inactive: dose: 6.25 mg/kg/injection, schedule: Q04DX003 (ip), vehicle: saline sonified 115 % of control | dose: 12.5 mg/kg/injection, schedule: Q04DX003 (ip), vehicle: saline sonified 110 % of control | dose: 16.5 mg/kg/injection, schedule: Q04DX003 (ip), vehicle: saline with Tween-80 108 % of control | [9] 112 % of control

c1cnc2c(c1)n[n+]1[n-]c3ccccc3n21
inactive: [13] 96 % of control | [14] 91 % of control

COC(=O)CCC(=O)C(C#N)c1ccc(CC#N)cc1 (stereo not drawn)
inactive: dose: 12.5 mg/kg/injection, schedule: Q01DX005 (ip), vehicle: saline with Tween-80 96 % of control | dose: 25.0 mg/kg/injection, schedule: Q01DX005 (ip), vehicle: saline with Tween-80 98 % of control | [6] 102 % of control and 95 % of control

C=CCn1c(=S)[nH]c2ccccc2c1=O
inactive: dose: 100.0 mg/kg/injection, schedule: Q04DX003 (ip), vehicle: saline with Tween-80 90 % of control | dose: 200.0 mg/kg/injection, schedule: Q04DX003 (ip), vehicle: saline with Tween-80 90 % of control | dose: 400.0 mg/kg/injection, schedule: Q04DX003 (ip), vehicle: saline with Tween-80 90 % of control

O=[N+]([O-])c1ccc(-c2csc(COc3ccccc3)n2)cc1
inactive: dose: 50.0 mg/kg/injection, schedule: Q01DX009 (ip), vehicle: gum acacia 98 % of control | dose: 100.0 mg/kg/injection, schedule: Q01DX009 (ip), vehicle: gum acacia 101 % of control | dose: 200.0 mg/kg/injection, schedule: Q01DX009 (ip), vehicle: gum acacia 96 % of control

C/C(NN(C)C)=C(\C#N)C(=O)/C=C/c1cccs1
inactive: [10] 105 % of control | [11] 98 % of control | [12] 96 % of control

Cc1ccc(NC(=O)c2cc(C)ccc2N)cc1
inactive: [6] 91 % of control | [7] 91 % of control | [8] 101 % of control
